Test system: 252836-082-R-J2-PDC tumor spheroids, viability
Test: Anticancer human tumor 252836-082-R-J2-PDC patient-derived head and neck squamous cell carcinoma cell line growth inhibition [PI3K]
Conditions: spheroids with HUVEC and MSC; for IC50: curve of first compound; for viability, T/C: stronger effect = lower value; active means viability on the fitted dose curve at most 10% of control; inactive means the rest
In short: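 We assembled tumor spheroids that included a stromal compartment of HUVEC and MSCs, then exposed them to targeted agents alone and together with PI3K pathway inhibitors. Concentration series descended by half-log from clinically achievable Cmax levels. Viability served as the endpoint.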

[1] = second compound 0.00316 µM, first compound 0.0316 µM
[2] = second compound 0.00316 µM, first compound 0.1 µM
[3] = second compound 0.00316 µM, first compound 0.316 µM
[4] = second compound 0.00316 µM, first compound 1 µM
[5] = second compound 0.00316 µM, first compound 3.16 µM
[6] = second compound 0.00316 µM, first compound 10 µM
[7] = second compound 0.01 µM, first compound 0.0316 µM
[8] = second compound 0.01 µM, first compound 0.1 µM
[9] = second compound 0.01 µM, first compound 0.316 µM
[10] = second compound 0.01 µM, first compound 1 µM
[11] = second compound 0.01 µM, first compound 3.16 µM
[12] = second compound 0.01 µM, first compound 10 µM
[13] = second compound 0.0316 µM, first compound 0.0316 µM
[14] = second compound 0.0316 µM, first compound 0.1 µM
[15] = second compound 0.0316 µM, first compound 0.316 µM
[16] = second compound 0.0316 µM, first compound 1 µM
[17] = second compound 0.0316 µM, first compound 3.16 µM
[18] = second compound 0.0316 µM, first compound 10 µM
[19] = second compound 0.1 µM, first compound 0.0316 µM
[20] = second compound 0.1 µM, first compound 0.1 µM
[21] = second compound 0.1 µM, first compound 0.316 µM
[22] = second compound 0.1 µM, first compound 1 µM
[23] = second compound 0.1 µM, first compound 3.16 µM
[24] = second compound 0.1 µM, first compound 10 µM
[25] = second compound 0.316 µM, first compound 0.0316 µM
[26] = second compound 0.316 µM, first compound 0.1 µM
[27] = second compound 0.316 µM, first compound 0.316 µM
[28] = second compound 0.316 µM, first compound 1 µM
[29] = second compound 0.316 µM, first compound 3.16 µM
[30] = second compound 0.316 µM, first compound 10 µM
[31] = second compound 1 µM, first compound 0.0316 µM
[32] = second compound 1 µM, first compound 0.1 µM
[33] = second compound 1 µM, first compound 0.316 µM
[34] = second compound 1 µM, first compound 1 µM
[35] = second compound 1 µM, first compound 3.16 µM
[36] = second compound 1 µM, first compound 10 µM
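Further: spheroids exposed to agents for seven days before readout.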
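Wherever viability, T/C is given: percent of vehicle DMSO control viability so 100% = untreated growth.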

Cn1nccc1Nc1nccc(-c2ccn(C(CO)c3ccc(Cl)c(F)c3)c(=O)c2)n1 (stereo unspecified) + CC(Nc1ccc2c(c1)OCCn1cc(N3C(=O)OCC3C(F)F)nc1-2)C(N)=O
< 0.0316 µM: IC50 (second compound 1 µM)
> 10 µM: IC50 (second compound 0.00316 µM) | IC50 (second compound 0.01 µM) | IC50 (second compound 0.0316 µM)
5.84 µM: IC50 (second compound 0.1 µM)
inactive: viability, T/C [1] 80.8% | viability, T/C [2] 90% | viability, T/C [3] 92.5% | viability, T/C [4] 85.4% | viability, T/C [5] 72.5% | viability, T/C [6] 61.9% | viability, T/C [7] 85.5% | viability, T/C [8] 78.7% | viability, T/C [9] 81% | viability, T/C [10] 89.7% | viability, T/C [11] 82.5% | viability, T/C [12] 58.1% | viability, T/C [13] 69.4% | viability, T/C [14] 74.2% | viability, T/C [15] 69.8% | viability, T/C [16] 75.8% | viability, T/C [17] 83.8% | viability, T/C [18] 44.6% | viability, T/C [19] 70.4% | viability, T/C [20] 58% | viability, T/C [21] 64.1% | viability, T/C [22] 64.6% | viability, T/C [23] 60.9% | viability, T/C [24] 40.4% | viability, T/C [25] 49.5% | viability, T/C [26] 50.3% | viability, T/C [27] 55.5% | viability, T/C [28] 50.1% | viability, T/C [29] 40.7% | viability, T/C [30] 28.6% | viability, T/C [31] 39.1% | viability, T/C [32] 43% | viability, T/C [33] 38.7% | viability, T/C [34] 38.6% | viability, T/C [35] 31.9% | viability, T/C [36] 22.6%
1.07 µM: IC50 (second compound 0.316 µM)

CC1(C)CCC(Nc2ncc(C(F)(F)F)c(-c3c[nH]c4c(P(C)(C)=O)c(C#N)ccc34)n2)CN1 (stereo unspecified) + COc1c(OCCCN2CCOCC2)ccc2c3n(c(=NC(=O)c4cnc(N)nc4)nc12)CCN3
< 0.0316 µM: IC50 (second compound 0.00316 µM) | IC50 (second compound 0.01 µM) | IC50 (second compound 0.0316 µM) | IC50 (second compound 0.1 µM) | IC50 (second compound 0.316 µM) | IC50 (second compound 1 µM)
active: viability, T/C [24] 1.25% | viability, T/C [26] 8.24% | viability, T/C [27] 8.82% | viability, T/C [28] 8.38% | viability, T/C [29] 8.08% | viability, T/C [30] 0.63% | viability, T/C [31] 2.41% | viability, T/C [32] 2.58% | viability, T/C [33] 2.51% | viability, T/C [34] 3.28% | viability, T/C [35] 2.74% | viability, T/C [36] 0.56%
inactive: viability, T/C [1] 30% | viability, T/C [2] 25.4% | viability, T/C [3] 25.2% | viability, T/C [4] 28.7% | viability, T/C [5] 34.5% | viability, T/C [6] 4.59% | viability, T/C [7] 24.9% | viability, T/C [8] 24.2% | viability, T/C [9] 25.5% | viability, T/C [10] 22.8% | viability, T/C [11] 26.4% | viability, T/C [12] 3.95% | viability, T/C [13] 22% | viability, T/C [14] 22.4% | viability, T/C [15] 22.7% | viability, T/C [16] 19.3% | viability, T/C [17] 22.3% | viability, T/C [18] 2.09% | viability, T/C [19] 15.1% | viability, T/C [20] 15.4% | viability, T/C [21] 17.4% | viability, T/C [22] 14.4% | viability, T/C [23] 18.4% | viability, T/C [25] 8.82%

CC1(C)CCC(CN2CCN(c3ccc(C(=O)NS(=O)(=O)c4ccc(NCC5CCOCC5)c([N+](=O)[O-])c4)c(Oc4cnc5[nH]ccc5c4)c3)CC2)=C(c2ccc(Cl)cc2)C1 + Cc1nc(NC(=O)N2CCCC2C(N)=O)sc1-c1ccnc(C(C)(C)C(F)(F)F)c1
4.13 µM: IC50 (second compound 0.316 µM)
4.08 µM: IC50 (second compound 1 µM)
5.2 µM: IC50 (second compound 0.1 µM)
< 0.0316 µM: IC50 (second compound 10 µM)
2.74 µM: IC50 (second compound 3.16 µM)
inactive: viability, T/C [13] 91.7% | viability, T/C [14] 77.8% | viability, T/C [15] 96.2% | viability, T/C [16] 96.8% | viability, T/C [17] 89.8% | viability, T/C [19] 83.1% | viability, T/C [20] 87.5% | viability, T/C [21] 83.2% | viability, T/C [22] 80.9% | viability, T/C [23] 94.4% | viability, T/C [25] 92.8% | viability, T/C [26] 86.1% | viability, T/C [27] 75.5% | viability, T/C [28] 84% | viability, T/C [29] 64% | viability, T/C [31] 63.6% | viability, T/C [32] 63.6% | viability, T/C [33] 64% | viability, T/C [34] 65.6% | viability, T/C [35] 63.1% | viability, T/C (second compound 3.16 µM, first compound 0.0316 µM) 59.1% | viability, T/C (second compound 3.16 µM, first compound 0.1 µM) 53.5% | viability, T/C (second compound 3.16 µM, first compound 0.316 µM) 46.3% | viability, T/C (second compound 3.16 µM, first compound 1 µM) 55.1% | viability, T/C (second compound 3.16 µM, first compound 3.16 µM) 49.4% | viability, T/C (second compound 10 µM, first compound 0.0316 µM) 32.3% | viability, T/C (second compound 10 µM, first compound 0.1 µM) 39.4% | viability, T/C (second compound 10 µM, first compound 0.316 µM) 38.9% | viability, T/C (second compound 10 µM, first compound 1 µM) 34% | viability, T/C (second compound 10 µM, first compound 3.16 µM) 36.1%
5.42 µM: IC50 (second compound 0.0316 µM)
active: viability, T/C [18] 4.76% | viability, T/C [24] 2.88% | viability, T/C [30] 3.65% | viability, T/C [36] 3.88% | viability, T/C (second compound 3.16 µM, first compound 10 µM) 2.29% | viability, T/C (second compound 10 µM, first compound 10 µM) 1.57%
